{
  "source": "patent US20190327961A1",
  "about": "“STABLE SOLID COMPOSITION BASED ON AN AROMATIC COMPOUND AND USES THEREOF” (priority 2016, published 2019)",
  "key": {"E. coli [1]": {"tested_on": "E. coli", "assay": "Disinfection of an artificially contaminated fibroscope", "settings": "fibroscope contaminated with E. coli, disinfectant at (1/10)"}, "E. coli [2]": {"tested_on": "E. coli", "assay": "Antibacterial action compared with glutaraldehyde in 96-well microplates", "type": "cell-based", "settings": "for bacterial growth (optical density, 600-nm wavelength): E. coli, 37° C., 24 hours"}, "Penicillium digitatum": {"tested_on": "Penicillium digitatum", "assay": "Drenching and waxing of clementines infected by injection of spores", "type": "in vivo, clementines (Afourar variety)", "settings": "fruits waxed only (batches 3 and 4)"}, "rot of clementines [3]": {"tested_on": "rot of clementines", "assay": "Drenching and waxing of non-infected, experimentally damaged clementines", "type": "in vivo, clementines (Afourar variety)", "settings": "washed then waxed, 27° C."}, "rot of clementines [4]": {"tested_on": "rot of clementines", "assay": "Tracking of the rot rate of clementines in a packing station", "type": "in vivo, clementines (Afourar variety)"}},
  "data": [
    {"molecule": "O=CCCCC=O", "note": "[Glutaraldehyde, glutaraldehyde]", "values": [
      {"measurement": "bacterial load After Disinfection", "setting": "E. coli [1]", "result": "Layers"},
      {"measurement": "bacterial load After Disinfection", "setting": "E. coli [1]; listed as glutaraldehyde", "result": "layer of bacteria"},
      {"measurement": "inhibiting minimal concentration (CMI)", "setting": "E. coli [2]; E. coli suspension on the order of 10^8 UFC/ml, expressed as dilution", "result": "obtained only with the pure disinfectant"},
      {"measurement": "bacterial growth (optical density, 600-nm wavelength)", "setting": "E. coli [2]; concentration 1", "result": 0},
      {"measurement": "bacterial growth (optical density, 600-nm wavelength)", "setting": "E. coli [2]; concentration 1/10", "result": "0.13 ± 0.002"},
      {"measurement": "bacterial growth (optical density, 600-nm wavelength)", "setting": "E. coli [2]; concentration 1/100", "result": "0.15 ± 0.002"},
      {"measurement": "bacterial growth (optical density, 600-nm wavelength)", "setting": "E. coli [2]; concentration 1/250", "result": "0.17 ± 0.003"},
      {"measurement": "bacterial growth (optical density, 600-nm wavelength)", "setting": "E. coli [2]; concentration 1/500", "result": "0.20 ± 0.002"},
      {"measurement": "bacterial growth (optical density, 600-nm wavelength)", "setting": "E. coli [2]; concentration 1/750", "result": "0.20 ± 0.002"},
      {"measurement": "bacterial growth (optical density, 600-nm wavelength)", "setting": "E. coli [2]; concentration 1/1,000", "result": "0.22 ± 0.012"},
      {"measurement": "bacterial growth (optical density, 600-nm wavelength)", "setting": "E. coli [2]; concentration 1/2,000", "result": "0.28 ± 0.035"},
      {"measurement": "bacterial growth (optical density, 600-nm wavelength)", "setting": "E. coli [2]; concentration 1/4,000", "result": "0.34 ± 0.007"},
      {"measurement": "bacterial growth (optical density, 600-nm wavelength)", "setting": "E. coli [2]; concentration 1/8,000", "result": "0.47 ± 0.034"},
      {"measurement": "bacterial growth (optical density, 600-nm wavelength)", "setting": "E. coli [2]; concentration 1/16,000", "result": "0.50 ± 0.005"}
    ]},
    {"molecule": "C=CCOC(Cn1ccnc1)c1ccc(Cl)cc1Cl", "note": "(stereo not shown) [imazalil]", "values": [
      {"measurement": "day after infection on which rot begins", "setting": "Penicillium digitatum; P. digitatum injected, 20° C.", "result": "starting from the fourth day"},
      {"measurement": "diameter of the rot", "setting": "Penicillium digitatum; after 7 days", "result": 2.55, "unit": "cm"},
      {"measurement": "Percentage of the Rotten Surface on the Fruits", "setting": "rot of clementines [3]; 4 D", "result": 0, "unit": "%"},
      {"measurement": "Percentage of the Rotten Surface on the Fruits", "setting": "rot of clementines [3]; 6 D", "result": 7, "unit": "%"},
      {"measurement": "Percentage of the Rotten Surface on the Fruits", "setting": "rot of clementines [3]; 8 D", "result": 11, "unit": "%"},
      {"measurement": "Percentage of the Rotten Surface on the Fruits", "setting": "rot of clementines [3]; 10 D", "result": 17, "unit": "%"},
      {"measurement": "Percentage of the Rotten Surface on the Fruits", "setting": "rot of clementines [3]; 12 D", "result": 29, "unit": "%"},
      {"measurement": "Percentage of the Rotten Surface on the Fruits", "setting": "rot of clementines [3]; 14 D", "result": 38, "unit": "%"},
      {"measurement": "Percentage of the Rotten Surface on the Fruits", "setting": "rot of clementines [3]; 16 D", "result": 44, "unit": "%"},
      {"measurement": "Percentage of Rotten Fruits", "setting": "rot of clementines [4]; Storage at 8° C., Week 1", "result": 2.63, "unit": "%"},
      {"measurement": "Percentage of Rotten Fruits", "setting": "rot of clementines [4]; Storage at 8° C., Week 2", "result": 1.35, "unit": "%"},
      {"measurement": "Percentage of Rotten Fruits", "setting": "rot of clementines [4]; Storage at 8° C., Week 3", "result": 2.16, "unit": "%"},
      {"measurement": "Percentage of Rotten Fruits", "setting": "rot of clementines [4]; Storage at 8° C., Week 4", "result": 4.67, "unit": "%"},
      {"measurement": "Percentage of Rotten Fruits", "setting": "rot of clementines [4]; Storage at 25° C., Week 1", "result": 7.78, "unit": "%"},
      {"measurement": "Percentage of Rotten Fruits", "setting": "rot of clementines [4]; Storage at 25° C., Week 2", "result": 6.91, "unit": "%"},
      {"measurement": "Percentage of Rotten Fruits", "setting": "rot of clementines [4]; Storage at 25° C., Week 3", "result": 9.68, "unit": "%"},
      {"measurement": "Percentage of Rotten Fruits", "setting": "rot of clementines [4]; Storage at 25° C., Week 4", "result": 8.43, "unit": "%"}
    ]}
  ]
}
